Measured values published in patent US8450313B2, “2,3-diaryl- or heteroaryl-substituted 1,1,1-trifluoro-2-hydroxypropyl compounds” (Hoffmann-La Roche Inc., priority 2009, dated 2013).

Target: T1, full length human recombinant glucocorticoid receptor (Homo sapiens, UniProt P04150)
T1 construct: It contains some partially purified full length human recombinant glucocorticoid receptor; purchased Panvera/Invitrogen PV4302
T1 sequence (P04150 1-777): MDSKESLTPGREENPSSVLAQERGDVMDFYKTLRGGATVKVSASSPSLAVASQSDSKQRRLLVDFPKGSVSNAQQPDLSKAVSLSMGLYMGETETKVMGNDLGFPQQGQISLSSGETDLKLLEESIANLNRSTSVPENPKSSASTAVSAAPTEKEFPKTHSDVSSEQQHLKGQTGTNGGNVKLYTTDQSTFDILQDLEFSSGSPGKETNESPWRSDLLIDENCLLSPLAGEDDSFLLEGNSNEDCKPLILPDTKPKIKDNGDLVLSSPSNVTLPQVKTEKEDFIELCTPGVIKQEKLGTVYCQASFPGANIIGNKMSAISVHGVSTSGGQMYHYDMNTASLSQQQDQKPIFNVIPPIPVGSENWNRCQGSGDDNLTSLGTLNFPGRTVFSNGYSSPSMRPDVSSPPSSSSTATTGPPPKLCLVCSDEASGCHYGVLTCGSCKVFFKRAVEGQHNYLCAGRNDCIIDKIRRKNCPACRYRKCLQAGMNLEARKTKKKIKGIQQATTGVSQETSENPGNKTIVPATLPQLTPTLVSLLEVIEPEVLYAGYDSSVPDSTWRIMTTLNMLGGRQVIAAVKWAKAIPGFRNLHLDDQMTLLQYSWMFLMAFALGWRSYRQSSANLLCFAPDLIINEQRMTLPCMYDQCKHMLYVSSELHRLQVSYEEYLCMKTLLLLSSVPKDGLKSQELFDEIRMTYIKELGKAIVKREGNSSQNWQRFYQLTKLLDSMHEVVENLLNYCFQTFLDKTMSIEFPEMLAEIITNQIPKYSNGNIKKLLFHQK
Experiment: Glucocorticoid Receptor Binding Assay (Glucocorticoid Receptor Competitor Assay far red kit, fluorescence polarization)
Conditions: competition with fluorescent GR ligand Fluormone GS Far Red, 3 hours at 22° C., pH 7.4; Ki calculated from IC50 by Cheng-Prusoff
Method: Glucocorticoid Receptor Binding Assay
The ability of the substances to bind to the glucocorticoid receptor was determined with the help of a commercial Glucocorticoid Receptor Competitor Assay far red kit provided by Panvera/Invitrogen (PV4302). This kit is used as provided by the supplier. It contains some partially purified full length human recombinant glucocorticoid receptor, a coactivator related GR stabilizing peptide, a tight-binding fluorescent GR ligand Fluormone™ GS Far Red as labeled tracer and a screening buffer. All reagents are prepared and the assay is run according to the recommendations of the kit manufacturer.
Briefly, the GR stabilizing peptide and the human recombinant glucocorticoid receptor are both diluted with the screening buffer (pH 7.4) and are gently mixed (no vortexing) just before the assay and kept on ice until use. The fluorescent-labeled ligand is also diluted with the screening buffer just before the assay and kept on ice until use. The substances to test are pre-diluted in pure DMSO then some water is added to get an intermediate 4.2% DMSO stock solution. Ten microliter of the intermediate stock solution is gently mixed with 5 μA of diluted fluorescent-labeled ligand and 5 μl of diluted human recombinant glucocorticoid receptor in a 384-well plate (low volume, ultraclear, glass plate from Greiner ref 788896). The plate is centrifuged, sealed and incubated for 3 hours at 22° C. in the dark. The polarized fluorescence is measured with a Zeiss-HTS reader or any equivalent equipment (610-660 nm).
All compounds were tested to determine IC50 in a serial dilution experiment. The concentration at which 50% inhibition of the fluorescent GR ligand Fluormone™ GS Far Red is obtained (the IC50) is determined after fitting with a sigmoidal dose-response model of a plot of the logarithm of the concentration versus percent inhibition measured for the different concentrations. Ki's were calculated from IC50 based on Cheng-Prusoff equation (Cheng, Y, Prusoff, W H (1973) Biochem Pharmacol 22, 3099-3108): Ki=IC50/[1+D/Kd] wherein D is the concentration of the fluorescent ligand and Kd is the binding constant for the fluorescent ligand binding to the receptor under the conditions used in the competition experiment.

| SMILES | Ki [nM] |
| --- | --- |
| C[C@H](c1ccc(Oc2cnc(C(=O)O)cn2)cc1Cl)[C@@](O)(c1ccc2c(c1)N(C)C(=O)CO2)C(F)(F)F (racemic) [Example 228, 5-{3-Chloro-4-[3,3,3-trifluoro-2-hydroxy-1-methyl-2-(4-methyl-3-oxo-3,4-dihydro-2H-benzo[1,4]oxazin-6-yl)-propyl]-phenoxy}-pyrazine-2-carboxylic acid] | 10.6 |
| C[C@@H](c1cc(OCc2ccc(C(=O)O)cc2)ccc1Cl)[C@](O)(c1ccc2c(c1)N(C)C(=O)CO2)C(F)(F)F (relative stereo) [Example 2, 4-{4-Chloro-3-[3,3,3-trifluoro-2-hydroxy-1-methyl-2-(4-methyl-3-oxo-3,4-dihydro-2H-benzo[1,4]oxazin-6-yl)-propyl]-phenoxymethyl}-benzoic acid] | 2 |
| C[C@@H](c1cc(OCC(=O)O)ccc1Cl)[C@](O)(c1ccc2c(c1)N(C)C(=O)CO2)C(F)(F)F (relative stereo) [Example 4, {4-Chloro-3-[3,3,3-trifluoro-2-hydroxy-1-methyl-2-(4-methyl-3-oxo-3,4-dihydro-2H-benzo[1,4]oxazin-6-yl)-propyl]-phenoxy}-acetic acid] | 426 |
| CCOC(=O)c1cccc(Oc2ccc(Cl)c([C@H](C)[C@](O)(c3ccc4c(c3)N(C)C(=O)CO4)C(F)(F)F)c2)c1 (relative stereo) [Example 5, 3-{4-Chloro-3-[3,3,3-trifluoro-2-hydroxy-1-methyl-2-(4-methyl-3-oxo-3,4-dihydro-2H-benzo[1,4]oxazin-6-yl)-propyl]-phenoxy}-benzoic acid ethyl ester] | 7.5 |
| COC(=O)c1ccc(Oc2ccc(Cl)c([C@H](C)[C@](O)(c3ccc4c(c3)N(C)C(=O)CO4)C(F)(F)F)c2)cc1 (relative stereo) [Example 7, 4-{4-Chloro-3-[3,3,3-trifluoro-2-hydroxy-1-methyl-2-(4-methyl-3-oxo-3,4-dihydro-2H-benzo[1,4]oxazin-6-yl)-propyl]-phenoxy}-benzoic acid methyl ester] | 11.1 |
| C[C@@H](c1cc(Oc2ccc(C(=O)O)cc2)ccc1Cl)[C@](O)(c1ccc2c(c1)N(C)C(=O)CO2)C(F)(F)F (relative stereo) [Example 8, 4-{4-Chloro-3-[3,3,3-trifluoro-2-hydroxy-1-methyl-2-(4-methyl-3-oxo-3,4-dihydro-2H-benzo[1,4]oxazin-6-yl)-propyl]-phenoxy}-benzoic acid] | 10.8 |
| COC(=O)c1ccc(Oc2ccc(Cl)c([C@H](C)[C@](O)(c3ccc4c(c3)N(C)C(=O)CO4)C(F)(F)F)c2)cc1Cl (relative stereo) [Example 9, 2-Chloro-4-{4-chloro-3-[3,3,3-trifluoro-2-hydroxy-1-methyl-2-(4-methyl-3-oxo-3,4-dihydro-2H-benzo[1,4]oxazin-6-yl)-propyl]-phenoxy}-benzoic acid methyl ester] | 8.9 |
| C[C@@H](c1cc(Oc2ccc(C(=O)O)c(Cl)c2)ccc1Cl)[C@](O)(c1ccc2c(c1)N(C)C(=O)CO2)C(F)(F)F (relative stereo) [Example 10, 2-Chloro-4-{4-chloro-3-[3,3,3-trifluoro-2-hydroxy-1-methyl-2-(4-methyl-3-oxo-3,4-dihydro-2H-benzo[1,4]oxazin-6-yl)-propyl]-phenoxy}-benzoic acid] | 3.7 |
| C[C@@H](c1cc(Oc2ccc(F)c(C(=O)O)c2)ccc1Cl)[C@](O)(c1ccc2c(c1)N(C)C(=O)CO2)C(F)(F)F (relative stereo) [Example 11, 5-{4-Chloro-3-[3,3,3-trifluoro-2-hydroxy-1-methyl-2-(4-methyl-3-oxo-3,4-dihydro-2H-benzo[1,4]oxazin-6-yl)-propyl]-phenoxy}-2-fluoro-benzoic acid] | 2.4 |
| C[C@@H](c1cc(Oc2cccc(CC(=O)O)c2)ccc1Cl)[C@](O)(c1ccc2c(c1)N(C)C(=O)CO2)C(F)(F)F (relative stereo) [Example 12, (3-{4-Chloro-3-[3,3,3-trifluoro-2-hydroxy-1-methyl-2-(4-methyl-3-oxo-3,4-dihydro-2H-benzo[1,4]oxazin-6-yl)-propyl]-phenoxy}-phenyl)-acetic acid] | 8 |
| COC(=O)c1ccc(Oc2ccc(Cl)c([C@H](C)[C@](O)(c3ccc4c(c3)N(C)C(=O)CO4)C(F)(F)F)c2)cc1F (relative stereo) [Example 13, 4-{4-Chloro-3-[3,3,3-trifluoro-2-hydroxy-1-methyl-2-(4-methyl-3-oxo-3,4-dihydro-2H-benzo[1,4]oxazin-6-yl)-propyl]-phenoxy}-2-fluoro-benzoic acid methyl ester] | 5.4 |
| C[C@@H](c1cc(Oc2ccc(C(=O)O)c(F)c2)ccc1Cl)[C@](O)(c1ccc2c(c1)N(C)C(=O)CO2)C(F)(F)F (relative stereo) [Example 14, 4-{4-Chloro-3-[3,3,3-trifluoro-2-hydroxy-1-methyl-2-(4-methyl-3-oxo-3,4-dihydro-2H-benzo[1,4]oxazin-6-yl)-propyl]-phenoxy}-2-fluoro-benzoic acid] | 3.9 |
| C[C@@H](c1cc(Oc2ccc(Cl)c(C(=O)O)c2)ccc1Cl)[C@](O)(c1ccc2c(c1)N(C)C(=O)CO2)C(F)(F)F (relative stereo) [Example 15, 2-Chloro-5-{4-chloro-3-[3,3,3-trifluoro-2-hydroxy-1-methyl-2-(4-methyl-3-oxo-3,4-dihydro-2H-benzo[1,4]oxazin-6-yl)-propyl]-phenoxy}-benzoic acid] | 3.7 |
| C[C@@H](c1cc(Oc2ccc(C(=O)O)cc2F)ccc1Cl)[C@](O)(c1ccc2c(c1)N(C)C(=O)CO2)C(F)(F)F (relative stereo) [Example 16, 4-{4-Chloro-3-[3,3,3-trifluoro-2-hydroxy-1-methyl-2-(4-methyl-3-oxo-3,4-dihydro-2H-benzo[1,4]oxazin-6-yl)-propyl]-phenoxy}-3-fluoro-benzoic acid] | 2.5 |
| C[C@@H](c1cc(-c2ccc(C(=O)O)cc2)ccc1Cl)[C@](O)(c1ccc2c(c1)N(C)C(=O)CO2)C(F)(F)F (relative stereo) [Example 17, 4′-Chloro-3′-[3,3,3-trifluoro-2-hydroxy-1-methyl-2-(4-methyl-3-oxo-3,4-dihydro-2H-benzo[1,4]oxazin-6-yl)-propyl]-biphenyl-4-carboxylic acid] | 55.6 |
| C[C@@H](c1cc(-c2cccc(C(=O)O)c2)ccc1Cl)[C@](O)(c1ccc2c(c1)N(C)C(=O)CO2)C(F)(F)F (relative stereo) [Example 18, 4′-Chloro-3′-[3,3,3-trifluoro-2-hydroxy-1-methyl-2-(4-methyl-3-oxo-3,4-dihydro-2H-benzo[1,4]oxazin-6-yl)-propyl]-biphenyl-3-carboxylic acid] | 609 |
| COC(=O)CC1CCN(C(=O)c2ccc(Cl)c([C@H](C)[C@](O)(c3ccc4c(c3)N(C)C(=O)CO4)C(F)(F)F)c2)CC1 (relative stereo) [Example 19, (1-{4-Chloro-3-[3,3,3-trifluoro-2-hydroxy-1-methyl-2-(4-methyl-3-oxo-3,4-dihydro-2H-benzo[1,4]oxazin-6-yl)-propyl]-benzoyl}-piperidin-4-yl)-acetic acid methyl ester] | 214 |
| C[C@@H](c1ccc(-c2ccccc2C(=O)O)cc1Cl)[C@](O)(c1ccc2c(c1)N(C)C(=O)CO2)C(F)(F)F (relative stereo) [Example 24, 3′-Chloro-4′-[3,3,3-trifluoro-2-hydroxy-1-methyl-2-(4-methyl-3-oxo-3,4-dihydro-2H-benzo[1,4]oxazin-6-yl)-propyl]-biphenyl-2-carboxylic acid] | 19.6 |
